Experimental data as given in patent publication US10253002B2, “Compounds and methods of treating infections” (Neoculi Pty Ltd., priority 2013, dated 2019).

What was measured:
Test in all cases: Broth microdilution MIC, Example 7 (NCL812 and analogues)
MRSA = type: cell-based, Staphylococcus aureus
How it was run: (§1)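 MICs in μg/ml were read as growth inhibition by eye, checked at 600 nm absorbance against drug-free wells, following CLSI broth microdilution. Strains: two MRSA, two VRE; duplicates, repeated once more when results diverged beyond one dilution step.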

VRE = type: cell-based, Enterococcus spp.
How it was run: as §1

Escherichia coli = type: cell-based; details: 24 hours
Pseudomonas aeruginosa = type: cell-based; details: 24 hours
[1] = MRSA 1, 24 hours, duplicate lines per compound
[2] = MRSA 2, 24 hours, duplicate lines per compound
[3] = VRE 1, 24 hours, duplicate lines per compound
[4] = VRE 2, 24 hours, duplicate lines per compound
[5] = E. coli, duplicate lines per compound
[6] = P. aeruginosa, duplicate lines per compound

CC(O)Nc1cc(Cl)ccc1C=NNC(=N)NN=Cc1ccc(Cl)cc1NC(C)O.Cl (stereo not drawn) [NCL 168]
MIC (μg/ml) at 24 hours, MRSA 1 (MRSA; [1]): 32 µg/mL | MIC (μg/ml) at 24 hours, MRSA 2 (MRSA; [2]): 32 µg/mL | MIC (μg/ml) at 24 hours, VRE 1 (VRE; [3]): 64 µg/mL | MIC (μg/ml) at 24 hours, VRE 2 (VRE; [4]): 32 µg/mL | MIC (μg/ml) at 24 hours, E. coli (Escherichia coli; [5]): >128 µg/mL | MIC (μg/ml) at 24 hours, P. aeruginosa (Pseudomonas aeruginosa; [6]): >128 µg/mL

Nc1nc(N/N=C/c2ccc(F)c(F)c2)cc(N/N=C/c2ccc(F)c(F)c2)n1 [NCL222]
MIC (μg/ml) at 24 hours, MRSA 1 (MRSA; MRSA 1, 24 hours): >128 µg/mL | MIC (μg/ml) at 24 hours, MRSA 2 (MRSA; MRSA 2, 24 hours): >128 µg/mL | MIC (μg/ml) at 24 hours, VRE 1 (VRE; VRE 1, 24 hours): >128 µg/mL | MIC (μg/ml) at 24 hours, VRE 2 (VRE; VRE 2, 24 hours): >128 µg/mL | MIC (μg/ml) at 24 hours, E. coli (Escherichia coli; E. coli): >128 µg/mL | MIC (μg/ml) at 24 hours, P. aeruginosa (Pseudomonas aeruginosa; P. aeruginosa): >128 µg/mL

Cl.N=C(NN=Cc1cc(Br)co1)NN=Cc1cc(Br)co1 [NCL 133]
MIC (μg/ml) at 24 hours, MRSA 1 (MRSA; [1]): >128 µg/mL | MIC (μg/ml) at 24 hours, MRSA 2 (MRSA; [2]): >128 µg/mL | MIC (μg/ml) at 24 hours, VRE 1 (VRE; [3]): >128 µg/mL | MIC (μg/ml) at 24 hours, VRE 2 (VRE; [4]): >128 µg/mL | MIC (μg/ml) at 24 hours, E. coli (Escherichia coli; [5]): >128 µg/mL | MIC (μg/ml) at 24 hours, P. aeruginosa (Pseudomonas aeruginosa; [6]): >128 µg/mL

Cl.N#Cc1ccccc1C=NNC(=N)NN=Cc1ccc(Cl)cc1 [NCL085]
MIC (μg/ml) at 24 hours, MRSA 1 (MRSA; [1]): >128 µg/mL | MIC (μg/ml) at 24 hours, MRSA 2 (MRSA; [2]): >128 µg/mL | MIC (μg/ml) at 24 hours, VRE 1 (VRE; [3]): >128 µg/mL | MIC (μg/ml) at 24 hours, VRE 2 (VRE; [4]): >128 µg/mL | MIC (μg/ml) at 24 hours, E. coli (Escherichia coli; [5]): >128 µg/mL | MIC (μg/ml) at 24 hours, P. aeruginosa (Pseudomonas aeruginosa; [6]): >128 µg/mL

Cl.N=C(N/N=C/c1ccc(Br)cc1)N/N=C/c1ccc(Br)cc1 [NCL 134]
MIC (μg/ml) at 24 hours, MRSA 1 (MRSA; [1]): >128 µg/mL | MIC (μg/ml) at 24 hours, MRSA 2 (MRSA; [2]): >128 µg/mL | MIC (μg/ml) at 24 hours, VRE 1 (VRE; [3]): >128 µg/mL | MIC (μg/ml) at 24 hours, VRE 2 (VRE; [4]): >128 µg/mL | MIC (μg/ml) at 24 hours, E. coli (Escherichia coli; [5]): >128 µg/mL | MIC (μg/ml) at 24 hours, P. aeruginosa (Pseudomonas aeruginosa; [6]): >128 µg/mL

Cl.N=C(N/N=C/c1ccncc1)N/N=C/c1ccncc1 [NCL 149]
MIC (μg/ml) at 24 hours, MRSA 1 (MRSA; [1]): >128 µg/mL | MIC (μg/ml) at 24 hours, MRSA 2 (MRSA; [2]): >128 µg/mL | MIC (μg/ml) at 24 hours, VRE 1 (VRE; [3]): >128 µg/mL | MIC (μg/ml) at 24 hours, VRE 2 (VRE; [4]): >128 µg/mL | MIC (μg/ml) at 24 hours, E. coli (Escherichia coli; [5]): >128 µg/mL | MIC (μg/ml) at 24 hours, P. aeruginosa (Pseudomonas aeruginosa; [6]): >128 µg/mL

FC(F)(F)c1ccc(C=NNC(=S)NN=Cc2ccc(C(F)(F)F)cc2)cc1 [NCL063]
MIC (μg/ml) at 24 hours, MRSA 1 (MRSA; isolate MRSA 1, 24 hours, 1st and 2nd replicate rows): >128 µg/mL | MIC (μg/ml) at 24 hours, MRSA 2 (MRSA; isolate MRSA 2, 24 hours, 1st and 2nd replicate rows): >128 µg/mL | MIC (μg/ml) at 24 hours, VRE 1 (VRE; isolate VRE 1, 24 hours, 1st and 2nd replicate rows): >128 µg/mL | MIC (μg/ml) at 24 hours, VRE 2 (VRE; isolate VRE 2, 24 hours, 1st and 2nd replicate rows): >128 µg/mL | MIC (μg/ml) at 24 hours, E. coli (Escherichia coli; 1st and 2nd replicate rows): >128 µg/mL | MIC (μg/ml) at 24 hours, P. aeruginosa (Pseudomonas aeruginosa; 1st and 2nd replicate rows): >128 µg/mL

COc1ccc(/C=N/Nc2cc(N/N=C/c3ccc(OC)cc3)nc(N)n2)cc1 [NCL230]
MIC (μg/ml) at 24 hours, MRSA 1 (MRSA; MRSA 1, 24 hours): >128 µg/mL | MIC (μg/ml) at 24 hours, MRSA 2 (MRSA; MRSA 2, 24 hours): >128 µg/mL | MIC (μg/ml) at 24 hours, VRE 1 (VRE; VRE 1, 24 hours): >128 µg/mL | MIC (μg/ml) at 24 hours, VRE 2 (VRE; VRE 2, 24 hours): >128 µg/mL | MIC (μg/ml) at 24 hours, E. coli (Escherichia coli; E. coli): >128 µg/mL | MIC (μg/ml) at 24 hours, P. aeruginosa (Pseudomonas aeruginosa; P. aeruginosa): >128 µg/mL

COc1cc(/C=N/NC(=N)N/N=C/c2ccc(O)c(OC)c2)ccc1O.Cl [NCL 117]
MIC (μg/ml) at 24 hours, MRSA 1 (MRSA; [1]): 64 µg/mL | MIC (μg/ml) at 24 hours, MRSA 2 (MRSA; [2]): 128 µg/mL | MIC (μg/ml) at 24 hours, VRE 1 (VRE; [3]): 64 µg/mL | MIC (μg/ml) at 24 hours, VRE 2 (VRE; [4]): 64 µg/mL | MIC (μg/ml) at 24 hours, E. coli (Escherichia coli; [5]): >128 µg/mL | MIC (μg/ml) at 24 hours, P. aeruginosa (Pseudomonas aeruginosa; [6]): >128 µg/mL
